Source: US9556113B2, “Combination uses of dichloroacetate and oxamate, and their prodrugs, for cancer treatment” (The South Dakota Board of Regents, priority 2014, dated 2017)

What was measured:
E6E7/Ras MTE cells = assay: Live cell number, trypan blue exclusion assay; assay type: cell-based, mouse; conditions: 1 mM, 2.5 mM and 5 mM, one day, vs DMSO
Method: FIG. 4 illustrates prodrugs AT-N4-001 and AT-N4-002 inhibiting cell proliferation and colony growth of E6E7/Ras MTE cells. (A) E6E7/Ras MTE cultures were treated with DMSO (Con), AT-N4-001, or AT-N4-[…] 002 at the indicated concentration for one day. Live cell number was then determined using a trypan blue exclusion assay. (B) E6E7/Ras MTE cells were seeded on 100-mm plate at 500 cells per plate (in triplicate). After one day, cells were treated as indicated and allowed to grow until colonies of untreated controls reached 50 or more cells (7 days). Plates were stained with Coomassie blue to visualize the colonies. (C) Quantification of colonies described in B. Colonies with more than 15 cells were counted.
E6E7/Ras MTE cells are mouse tonsilar epithelial cells that have been transformed by HPV oncogenes E6 and E7 together with activated ras. They form tumors in mice and are a model of human HPV+HNSCC. These cells were treated in culture with either vehicle control (DMSO), AT-N4-001, or AT-N4-002 at concentrations of 1 mM, 2.5 mM and 5 mM for one day. Live cells were counted using a hemocytometer (FIG. 4A). […] The effects of the compounds on clonogenic growth of the cells were also tested. E6/E7/Ras MTE cells were seeded in 100 mm plates in triplicate, and the next day cells were treated with either vehicle control DMSO, 5 mM AT-N4-001, 5 mM AT-N4-002, or 10 mM DCA. […]

E6E7/Ras cells = assay: Lactate secretion into culture medium, enzyme based assay; assay type: cell-based, mouse; conditions: 5 mM each, 4 hours
Method: FIG. 5 illustrates the reduction of lactate secretion in cultured cells by prodrugs AT-N4-001 and AT-N4-002. E6E7Ras cells were plated in 100 mm dishes and grown to confluence. The medium was changed to bicarbonate-free DMEM-10% FBS with or without the indicated treatments (5 mM each). Four hours later the medium was collected and lactate was measured using an enzyme based assay from Eton Bioscience. Con indicates the control samples for the DCA and Oxamate samples. DMSO indicates the vehicle only control for the AT-N4-001 and AT-N4-002 prodrug samples.
AT-N4-001 and AT-N4-002 should each release two molecules of DCA and one molecule of oxamate. Both DCA and oxamate are expected to reduce cellular lactate production. Therefore, we examined the changes in lactate after treatment of E6E7/Ras cells with the prodrugs. E6E7/Ras cells were seeded into 100 mm dishes and the next day treated with 5 mM AT-N4-001, 5 mM AT-N4-002, 5 mM DCA plus 5 mM oxamate, or 5 mM DCA alone. Culture medium was collected after 4 hours of treatment and lactate levels were determined (FIG. 5). […] To confirm the effects of these compounds on lactate production, the extra cellular acidification rate (ECAR) was measured using a Seahorse XF24 Extracellular Flux analyzer. Since lactate is transported from cells together with a proton, acidification of the culture medium (ECAR) is an estimate of lactate production and the glycolytic rate of cells. In the experiment shown in FIG. 6A, ECAR measurements were initiated in the absence of glucose. At point A, glucose was added and ECAR measurements continued. […] At point B, additional glucose along with vehicle (control), DCA plus oxamate, or AT-N4-002 was added. […] This is shown by a bar graph in FIG. 6B.

| SMILES | live cell number (FIG. 4A) (E6E7/Ras MTE cells) | lactate production (culture medium, FIG. 5) (E6E7/Ras cells) |
| --- | --- | --- |
| NC(=O)C(=O)OC(COC(=O)C(Cl)Cl)COC(=O)C(Cl)Cl [AT-N4-001, 2-(2-Amino-2-oxoacetoxy)propane-1,3-diyl bis(2,2-dichloroacetate)] | significant reductions in live cell number | significantly reduce lactate production |
| NC(=O)C(=O)OCC(COC(=O)C(Cl)Cl)OC(=O)C(Cl)Cl (stereo not shown) [AT-N4-002, 3-(2-amino-2-oxoacetoxy)propane-1,2-diyl bis(2,2-dichloroacetate)] | significant reductions in live cell number | significantly reduce lactate production |
